We go through four compounds from patent US6153605A, “Arylsecocholadiene derivatives” (priority 1997, dated 2000).

Where two headings read alike, the source gives them in different places.

Series [1] concerns normal mouse skin. Kind of series: Activity assay hyperproliferative disorders: epidermal thickening (acanthosis) in hairless mice, oral. The note with it: for ED50: Mus musculus, read-out: ED50 (dose causing halfmaximal epidermal thickening). The class given is in vivo, hairless mice (Moro hr/hr). On the procedure: Activity Assay Hyperproliferative Disorders
(§1) Orally administered vitamin D analogues can lead to epidermal thickening (acanthosis) in hairless mice. […] Compounds of formula I were tested for 4 days at different dosages in order to detect compounds which show this epidermal effect at subtoxic and non-toxic doses (dosage leading to slight or no weight loss). […] The calcitriol data were obtained from animals treated for three days.
(§2) Hairless mice (Moro hr/hr) received daily administrations of the test compound in arachis oil by gavage for 4 days, using 2-5 different dosages (3 fold increments; 2 animals per dosage group). The mice were sacrificed at day 5 and skin biopsies were taken, fixed in formalin and treated for histological evaluation. The epidermal thickness was measured at standard magnification using an occular grid. Daily measurements of body weight allows to judge toxicity (calcemic liability) and determine the non-toxic dose level defined as the dose which is tolerated without weight loss.
ED50 : dose (μg/kg) causing halfmaximal epidermal thickening
TI shift: shift in "therapeutic index", is defined as ratio ED50 /HT
for calcitriol divided by the ratio ED50 /HTP for the test compound

The nature of series [2]: Oral tolerance (calcemic liability) by body weight in hairless mice. Set-up: species or system hairless mice (Moro hr/hr). The settings on record: mouse, in vivo, oral gavage in arachis oil, daily for 4 days, read-out: HTDp.o. (highest tolerated oral dose without weight loss). On the procedure:
as §1, §2
HTDp.o.: highest tolerated oral dose (μg/kg) without weight loss

The subject of series [3] is normal mouse skin. The note with it: known antipsoriatics; cited from earlier work.
Where [4] appears, read: 96 h, oral gavage in arachis oil, daily for 4 days.

On to `CC(C#Cc1ccccc1C(C)(C)O)[C@H]1CC[C@H]2/C(=C/C=C3C[C@@H](O)C[C@H](O)C3)CCC[C@]12C` (stereo partly drawn) [Example 6, (7E)-(1R,3R)-23-[2-(1-Hydroxy-1-methyl-ethyl)-phenyl]-19,24-dinor-9,10-seco-chola-5,7-dien-22-yne-1,3-diol], for which, in the series with normal mouse skin [1] (setting [4]), the 50% effective dose (ED50) turned out to be 2.5 mg/kg. Also, the “ratio ED50/HTD” value in the series with normal mouse skin [1] (oral, 4 days) stood at 63. Also, the MTD in series [2] is 0.04 mg/kg.

As to `C=C1/C(=C\C=C2/CCC[C@]3(C)[C@@H]([C@@H](C)C#Cc4cccc(C(C)(C)O)c4)CC[C@@H]23)C[C@@H](O)C[C@@H]1O` [Example 14, (5Z,7E)-(1S,3R,20R)-23-[3-(1-Hydroxy-1-methyl-ethyl)-phenyl)-24-nor-9,10seco-chola-5,7,10(19)-trien-22-yne-1,3-diol], the ED50 with normal mouse skin [1] (setting [4]) was 7 mg/kg. Moreover, the “ratio ED50/HTD” value in the series with normal mouse skin [1] (oral, 4 days) worked out at 7. In addition, in series [2], the MTD was 1 mg/kg.

As for `C=C1/C(=C\C=C2/CCC[C@]3(C)[C@@H]([C@@H](C)C#Cc4ccccc4C(C)(C)O)CC[C@@H]23)C[C@@H](O)C[C@@H]1O` [Example 16, (5Z,7E)-(1S,3R,20R)-23-[2-(1-Hydroxy-1-methyl-ethyl)-phenyl)-24-nor-9,10-seco-chola-5,7,10(19)-trien-22-yne-1,3-diol], in the series with normal mouse skin [1] (setting [4]), the 50% effective dose (ED50) stood at 10 mg/kg. For the same compound, the “ratio ED50/HTD” value in the series with normal mouse skin [1] (oral, 4 days) is 5. Besides, the MTD in series [2] is 2 mg/kg.

Take `C=C1/C(=C\C=C2/CCC[C@]3(C)[C@@H]([C@H](C)CCCC(C)(C)O)CC[C@@H]23)C[C@@H](O)C[C@@H]1O` [calcitriol, 1,25-dihydroxycholecalciferol, reference compound]: the “epidermal thickening effect on normal mouse skin, in words” value with normal mouse skin [3] is on record as “show this effect on normal mouse skin”. For the same compound, the “skin effect (epidermal thickening) on 4 days dosing, in words” value in the series with normal mouse skin [1] (4 days) is recorded as “could not be dosed for 4 days high enough to obtain this skin effect”. Besides, the ED50 with normal mouse skin [1] (72 h, oral, calcitriol treated for three days) stood at 0.5 mg/kg. For the same compound, the “ratio ED50/HTD” value with normal mouse skin [1] (oral, calcitriol treated for three days) was 500.
